Test results: article PMC6205551, “Molecular analysis of the dual targeting of the epidermal growth factor receptor and the O^6-methylguanine-DNA methyltransferase with a double arm hybrid molecule” (Oncotarget, 2018)

What was measured:
[1] = target: T1, O^6-methylguanine-DNA methyltransferase (MGMT) (Homo sapiens, UniProt P16455); experiment: MALDI-TOF MS of tryptic peptides of isolated MGMT incubated with […] compound (S-benzylation); assay type: binding
T1 sequence (P16455 1-207): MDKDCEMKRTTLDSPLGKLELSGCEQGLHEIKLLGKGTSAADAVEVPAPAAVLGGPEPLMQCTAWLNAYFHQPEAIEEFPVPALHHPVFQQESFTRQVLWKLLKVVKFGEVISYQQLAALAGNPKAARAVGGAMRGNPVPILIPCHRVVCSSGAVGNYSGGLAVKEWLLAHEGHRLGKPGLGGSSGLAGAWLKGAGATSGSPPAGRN

EGFR (L858R) = EGFR (L858R) (Homo sapiens, UniProt P00533, L858R); experiment: isolated kinase profiling (Carna), single dose […], ATP at Km; assay type: biochemical
HER2 = target: T2, HER2 (Homo sapiens, UniProt P04626); experiment: as above; assay type: biochemical
T2 construct: gene ERBB2

[2] = target: epidermal growth factor receptor (EGFR) (Homo sapiens, UniProt P00533); experiment: in vitro EGFR kinase assay (PGT substrate, […] ATP, ELISA); assay type: biochemical
HER4 = target: T3, HER4 (Homo sapiens, UniProt Q15303); experiment: isolated kinase profiling (Carna), single dose […], ATP at Km; assay type: biochemical
T3 construct: gene ERBB4
T3 sequence (Q15303 26-1308): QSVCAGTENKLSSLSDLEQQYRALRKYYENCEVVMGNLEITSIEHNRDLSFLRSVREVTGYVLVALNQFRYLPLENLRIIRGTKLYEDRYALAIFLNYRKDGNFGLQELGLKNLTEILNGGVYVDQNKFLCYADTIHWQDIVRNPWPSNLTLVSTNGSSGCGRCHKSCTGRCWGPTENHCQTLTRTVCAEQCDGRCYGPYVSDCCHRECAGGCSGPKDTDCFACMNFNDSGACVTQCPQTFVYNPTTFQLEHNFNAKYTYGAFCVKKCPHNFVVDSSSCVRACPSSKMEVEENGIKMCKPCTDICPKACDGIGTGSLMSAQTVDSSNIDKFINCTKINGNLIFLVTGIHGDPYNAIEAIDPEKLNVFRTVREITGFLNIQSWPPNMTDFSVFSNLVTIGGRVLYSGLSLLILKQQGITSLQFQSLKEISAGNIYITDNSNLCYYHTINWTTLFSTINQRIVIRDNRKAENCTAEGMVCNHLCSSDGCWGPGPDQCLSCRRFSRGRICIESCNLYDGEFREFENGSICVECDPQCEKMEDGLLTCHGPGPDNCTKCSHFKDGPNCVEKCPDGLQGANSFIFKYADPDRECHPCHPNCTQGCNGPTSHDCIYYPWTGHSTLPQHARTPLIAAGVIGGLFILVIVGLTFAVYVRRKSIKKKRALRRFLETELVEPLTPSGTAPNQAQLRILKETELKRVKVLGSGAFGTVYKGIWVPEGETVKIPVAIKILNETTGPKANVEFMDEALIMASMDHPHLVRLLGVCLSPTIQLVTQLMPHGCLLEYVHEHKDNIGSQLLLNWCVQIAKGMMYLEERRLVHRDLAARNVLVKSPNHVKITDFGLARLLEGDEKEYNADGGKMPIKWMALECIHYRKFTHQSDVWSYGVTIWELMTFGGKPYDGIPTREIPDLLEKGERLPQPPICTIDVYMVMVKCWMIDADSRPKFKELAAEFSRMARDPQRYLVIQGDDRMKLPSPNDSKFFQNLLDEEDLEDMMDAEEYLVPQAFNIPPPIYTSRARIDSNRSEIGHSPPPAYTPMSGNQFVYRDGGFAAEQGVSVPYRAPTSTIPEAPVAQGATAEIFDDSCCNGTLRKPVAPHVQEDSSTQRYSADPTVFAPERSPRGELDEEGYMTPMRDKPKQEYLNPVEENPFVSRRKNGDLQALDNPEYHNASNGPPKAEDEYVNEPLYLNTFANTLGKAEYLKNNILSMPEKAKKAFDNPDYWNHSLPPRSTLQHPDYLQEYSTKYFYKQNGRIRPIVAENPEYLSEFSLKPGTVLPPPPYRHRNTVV

T2 sequence (P04626 23-1255): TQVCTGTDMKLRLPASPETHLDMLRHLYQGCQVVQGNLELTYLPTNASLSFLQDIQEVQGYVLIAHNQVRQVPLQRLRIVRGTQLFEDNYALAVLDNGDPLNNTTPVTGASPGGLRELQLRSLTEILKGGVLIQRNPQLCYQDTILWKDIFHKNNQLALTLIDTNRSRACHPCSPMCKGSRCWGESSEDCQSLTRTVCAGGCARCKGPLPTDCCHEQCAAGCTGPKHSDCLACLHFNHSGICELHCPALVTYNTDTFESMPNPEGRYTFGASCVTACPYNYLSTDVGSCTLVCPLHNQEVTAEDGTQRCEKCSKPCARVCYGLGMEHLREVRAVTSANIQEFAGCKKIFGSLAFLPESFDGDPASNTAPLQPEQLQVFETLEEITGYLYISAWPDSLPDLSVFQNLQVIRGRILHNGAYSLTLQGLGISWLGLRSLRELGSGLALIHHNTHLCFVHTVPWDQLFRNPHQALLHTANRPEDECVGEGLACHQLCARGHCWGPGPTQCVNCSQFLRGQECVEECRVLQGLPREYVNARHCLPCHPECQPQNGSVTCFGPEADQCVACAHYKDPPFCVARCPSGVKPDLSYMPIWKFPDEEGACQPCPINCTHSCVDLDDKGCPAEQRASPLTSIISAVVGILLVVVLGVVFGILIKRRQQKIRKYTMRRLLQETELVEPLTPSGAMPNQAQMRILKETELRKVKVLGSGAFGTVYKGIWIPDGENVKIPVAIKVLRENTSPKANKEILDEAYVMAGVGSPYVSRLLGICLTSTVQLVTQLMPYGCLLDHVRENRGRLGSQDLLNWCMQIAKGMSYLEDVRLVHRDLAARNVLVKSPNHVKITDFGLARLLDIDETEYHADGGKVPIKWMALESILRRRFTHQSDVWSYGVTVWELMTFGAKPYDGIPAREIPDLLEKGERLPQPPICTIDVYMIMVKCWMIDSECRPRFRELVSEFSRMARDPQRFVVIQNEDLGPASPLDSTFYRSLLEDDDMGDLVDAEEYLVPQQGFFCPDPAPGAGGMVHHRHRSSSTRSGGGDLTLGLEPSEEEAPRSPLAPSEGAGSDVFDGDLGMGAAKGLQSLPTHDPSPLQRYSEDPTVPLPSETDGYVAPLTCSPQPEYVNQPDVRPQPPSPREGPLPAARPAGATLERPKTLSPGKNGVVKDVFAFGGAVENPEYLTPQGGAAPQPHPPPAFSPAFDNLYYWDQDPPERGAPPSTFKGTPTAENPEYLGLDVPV

Row | SMILES | MALDI-TOF MS of tryptic peptides of isolated MGMT incubated with 10 μM compound [1] | isolated kinase profiling (Carna), single dose 500 nM, ATP at Km (EGFR (L858R)) | isolated kinase profiling (Carna), single dose 500 nM, ATP at Km (HER2) | IC50 [2] [nM] | isolated kinase profiling (Carna), single dose 500 nM, ATP at Km (HER4)
1 | Nc1nc(OCc2ccccc2)c2nc[nH]c2n1 [O^6-BG] | when we treated MGMT with MR30 or O^6-BG, we observed a mass shift | – | – | – | –
2 | Nc1nc(OCc2ccccc2)c2ncn(C(=O)N3CCN(CCNc4ccc5ncnc(Nc6cccc(Br)c6)c5c4)CC3)c2n1 [compound 5, (2-amino-6-(benzyloxy)-9H-purin-9-yl)(4-(2-((4-((3-bromophenyl)amino)quinazolin-6-yl)amino)ethyl)piperazin-1-yl)methanone] | like O^6-BG, MR30 is capable of binding to MGMT and alkylate its Cys145 | MR30, selectively inhibited kinases from the HER family of proteins [e.g. EGFR wild-type, EGFR (L858R) | MR30 selectively inhibited kinases from HER family of proteins, including EGFR, EGFR (L858R, d746-750), HER2 and HER4 | 300 ± 170 | MR30 selectively inhibited kinases from HER family of proteins, including EGFR, EGFR (L858R, d746-750), HER2 and HER4
